From patent publication US5866775A, “Glyphosate-tolerant 5-enolpyruvyl-3-phosphoshikimate synthases” (Monsanto Company, priority 1990, dated 1999)

Tests used:
[1] = test system: transgenic canola plants containing pMON10074 (Arabidopsis EPSPS gly-ala(101), ala-thr(192)); assay: Glyphosate spray of canola, pMON10074 plants; format: in vivo; conditions: 0.56 kg/ha spray; 15 transgenic plants
Source text: The resulting plasmid, pMON8324, was partially sequenced to confirm the mutagenesis. […] The pMON10074 plasmid contains the following DNA segments (FIG. 5, clockwise). First, the 0.93 kb fragment isolated from transposon Tn7 which encodes bacterial spectinomycin/streptomycin resistance (Spc/Str), and is a determinant for selection in E. coli and Agrobacterium tumefaciens (Fling et al. 1985). This is joined to the chimeric kanamycin resistance gene engineered for plant expression to allow selection of the transformed tissue. […]
A total of 15 transgenic canola plants containing the pMON10074 construct, and 2 non-transformed controls were sprayed with glyphosate at a commercial rate of 0.56 kg/ha. The effect of glyphosate on both the vegetative and reproductive performance of the sprayed plants was scored at 7, 14 and 28 days after spray. […]

[2] = molecular target: T1, pMON8252 encoded petunia EPSPS variant, glycine (101) to alanine and alanine (192) to threonine (Petunia hybrida, UniProt P11043, A264T/G173A); assay: EPSP synthase kinetic constants (appKm PEP, appKi glyphosate); format: biochemical
T1 construct: alanine 192 in the mature petunia EPSP synthase; made in house; host or cells: E. coli SR481 (aroA-)
Method: The balance of the #742 preculture (~750 μl) was used to inoculate 2 ml of 2XYT medium containing 50 μg/ml carbenicillin and was shaken overnight at 37° C. to reach saturation. Plasmid DNA was isolated from an aliquot of the saturated culture using an alkaline lysis procedure. The plasmid was designated pMON8252. An aliquot of the pMON8252 plasmid was used to transform the E. coli host SR481 (described above) and reselected on MOPS medium containing 10 mM glyphosate and 50 μg/ml carbenicillin. A single glyphosate resistant colony of pMON8252 was picked off the selection plate and used to inoculate 3 ml of 2XY1 bacterial medium containing 50 μg/ml carbenicillin. The culture was then aerated on a rotating wheel at 37° C. until saturated and then used to inoculate a larger 250 ml culture. The large culture was grown to saturation by continuously shaking it overnight at 37° C. in a water bath. The bacterial cells were lysed and the extracts were assayed for EPSPS activity.
Specifically, the bacterial cell paste was washed twice with 0.9% saline, suspended in buffer (100 mM Tris-HCl, 5 mM benzamidine HCl) and passed twice through a French Pressure Cell at 1000 psi. The cell extract was separated from the cells by centrifuging at 15,000×gravity for 10 minutes at 5° C. It was desalted using Sephadex G-50 (Pharmacia, Piscataway, N.J.). The desalted extract was assayed for EPSP synthase activity as follows.
Kinetic constants (appKm PEP and appKi glyphosate) were determined for EPSP synthase as described below. Substrate kinetic parameters were determined at pH 7.9 in 50 mM HEPES (N-[2-hydroxyethyl]piperazine-N'-[2-ethanesulfonic acid]) buffer in the presence of 2 mM S3P and varying amounts of ^14 C-PEP (10 μM-400 μM), for 2.0 minutes at 25° C. Reactions were quenched with 100 mM NaAcetate in ethanol, pH 4.5, centrifuged and analyzed for product EPSP formation by HPLC with flow radioactivity detection. HPLC conditions were 0.35M KPi, pH 6.5, on a Synchropak AX100 column at 1.0 ml/minute.

[3] = test system: wildtype petunia plant or transformed with control vector (pMON505); assay: Plant response to glyphosate spraying, control plants; format: in vivo; conditions: 0.8 #/acre acid equivalent (0.897 kg/hectare), isopropylamine salt, spray
Method: Four individual representative transgenic seedlings were selected, grown and tested in the testing procedure described below, along with four individual non-transformed (wild-type) petunia seedlings.
The plants were grown in a growth medium in a growth chamber at 26° C. with 12 hours of light per day. The plants were fertilized weekly with a soluble fertilizer and watered as needed. The plants were sprayed at a uniform and reproducible delivery rate of herbicide by use of an automated track sprayer. The glyphosate solution used was measured as pounds of glyphosate acid equivalents per acre, mixed as the glyphosate isopropylamine salt, with an ionic surfactant.
Four individual wild-type (non-transformed) petunia plants were selected for use as control plants. Four individual transformed plants containing the pMON546 vector were selected by kanamycin resistance as described by Horsch, et al. (1985).
The control plants and the transformed plants were sprayed with the isopropylamine salt of glyphosate at the application level listed in Table 2 below; the experimental results obtained are also summarized in Table 2.

T1 sequence (P11043 73-516 G173A/A264T): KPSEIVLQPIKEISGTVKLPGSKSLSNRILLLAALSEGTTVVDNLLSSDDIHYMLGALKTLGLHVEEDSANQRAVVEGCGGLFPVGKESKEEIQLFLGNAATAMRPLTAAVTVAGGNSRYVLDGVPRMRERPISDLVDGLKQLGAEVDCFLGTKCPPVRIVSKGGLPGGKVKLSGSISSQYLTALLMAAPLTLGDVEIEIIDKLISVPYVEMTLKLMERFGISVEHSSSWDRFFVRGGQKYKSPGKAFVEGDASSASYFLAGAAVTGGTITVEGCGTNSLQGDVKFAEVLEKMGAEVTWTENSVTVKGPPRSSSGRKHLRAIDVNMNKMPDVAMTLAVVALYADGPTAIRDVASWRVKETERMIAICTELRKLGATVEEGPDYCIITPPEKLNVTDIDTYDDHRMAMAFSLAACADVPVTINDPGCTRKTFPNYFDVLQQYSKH

`O=C(O)CNCP(=O)(O)O` [glyphosate, N-phosphonomethylglycine] was tested, and the “reproductive score (scale 0-10, 0 total kill, 10 normal unsprayed plant)” value [1] was 7 out of 15 had reproductive scores greater than 8 with 3 of them scoring 10, the “vegetative score (scale 0-10, 0 total kill, 10 normal unsprayed plant)” value [1] was 6 out of 15 plants having vegetative scores greater than 8, with 1 scoring a 10 and the “Ki /Km ratio” value ([2]; Ki glyphosate / Km PEP) was 12.6. For the same compound, the Ki for glyphosate ([2]; versus PEP, extract of SR481 cells with pMON8252) was 683 µM and the “Visual Appearance” value [3] was “completely dead”.
